{"source": "patent US11213020B2", "about": "“Atopic dermatitis model non-human animal and use thereof” (KYUSHU UNIVERSITY, NATIONAL UNIVERSITY CORPORATION, priority 2016, dated 2022)", "key": {"EPAS1 protein": {"system": "EPAS1 protein", "assay": "Western blotting of EPAS1 expression in CD4+ T cells treated with EPAS1 inhibitor", "type": "cell-based", "settings": "human CD4+ T cells (patients with atopic dermatitis and healthy controls), inhibitor at 30 μM, FIG. 44", "description": "(§1) Human peripheral blood samples were collected from atopic dermatitis patients and healthy volunteers in compliance with Institutional Review Board protocols of the facility. Human peripheral blood mononuclear cells (PBMC) were separated by Percoll (GE Healthcare) gradient centrifugation. The CD4^+ T cells were isolated from PBMCs by magnetic sorting by using Dynabeads human CD4 followed by treatment with DETACHaBEAD human CD4 (Life Technologies).\n(§2) After being suspended in complete RPMI 1640 medium, CD4^+ T cells (3×10^5 cells/well) were stimulated in a 24-well plate coated with anti-human CD3ε antibody (model “Hit3a”, Tonbo Biosciences) for 6 hours. In some experiments, the CD4^+ T cells were treated with EPAS1 inhibitors, FM19G11 or HIFVII at 30 μM (both from Calbiochem).\nCells were lysed in 20 mM Tris-HCl buffer (pH 7.5) containing 1% Triton X-100, 150 mM NaCl, 1 mM EDTA, 1 mM EGTA, 2.5 mM sodium pyrophosphate, 1 mM β-glycerophosphate, 1 mM Na3VO4, and complete protease inhibitors (Roche).\nAfter centrifugation, the supernatants were mixed with an equal volume of 2× sample buffer (125 mM Tris-HCl, 0.01% bromophenacyl bromide, 4% SDS, 20% glycerol, and […] dithiothreitol). Samples were boiled for 5 minutes and analyzed by inmmunoblotting.\nThe following antibodies were used. […]"}, "IL-31 gene": {"system": "IL-31 gene", "assay": "IL-31 gene expression in CD4+ T cells from patients with atopic dermatitis following TCR stimulation (real-time PCR)", "type": "cell-based, human", "settings": "anti-CD3ε stimulation 6 hours, inhibitor at 30 μM, FIG. 45 (a), (c)", "description": "as §1, §2\n(§3) Total RNA was extracted using ISOGEN (trade name, Nippon Gene). After treatment with RNase-free DNase I (Life Technologies), RNA samples were reverse-transcribed with oligo (dT) primers (Life Technologies) and SuperScript III reverse transcriptase (Life Technologies) for amplification by PCR.\n(§4) Real-time PCR was performed using ABI PRISM 7,000 Sequence Detection System (trade name, Applied Biosystems) and SYBR Green PCR Master Mix (Applied Biosystems).\n(§5) The expression levels of human and mouse target genes were normalized based on expression levels of GAPDH and HPRT. […]"}, "IL-2 gene": {"system": "IL-2 gene", "assay": "IL-2 gene expression in CD4+ T cells from patients with atopic dermatitis following TCR stimulation (real-time PCR)", "type": "cell-based, human", "settings": "anti-CD3ε stimulation 6 hours, inhibitor at 30 μM, FIG. 45 (b)", "description": "as §1, §2, §3, §4, §5"}}, "data": [{"smiles": "Cc1ccc(C(=O)COC(=O)c2cccc(NC(=O)c3ccc([N+](=O)[O-])cc3[N+](=O)[O-])c2)cc1", "note": "[FM19G11, 3-[(2,4-dinitrobenzoyl)amino]-benzoic acid 2-(4-methylphenyl)-2-oxoethyl ester]", "values": [{"measurement": "expression level of EPAS1 protein", "setting": "EPAS1 protein", "value": "markedly decreased"}, {"measurement": "expression of the IL-31 gene following TCR stimulation", "setting": "IL-31 gene", "value": "markedly suppressed"}, {"measurement": "expression levels of the IL-2 gene following TCR stimulation", "setting": "IL-2 gene", "value": "comparable"}]}]}
